Source: ChEMBL document CHEMBL1157460, “Enhanced concentration-dependent cytotoxic effect of the dinuclear copper(II) complex of L-carnitine [Cu2(L-carnitine)2Cl2(H2O)2]Cl2, compared to L-carnitine or copper chloride dihydrate, in human leukemic cell lines” (2008)

What was measured:
K562 [1] = test: Cytotoxicity against human K562 cells assessed as necrosis at 10 uM after 24 hrs by trypan blue staining; format: functional
K562 [2] = test: Cytotoxicity against human K562 cells assessed as necrosis at 2.5 uM after 48 hrs by trypan blue staining; format: functional
HL-60 [3] = test: Cytotoxicity against human HL60 cells assessed as necrosis at 1.25 uM after 24 hrs by trypan blue staining; format: functional
K562 [4] = test: Cytotoxicity against human K562 cells assessed as necrosis at 1.25 uM after 48 hrs by trypan blue staining; format: functional
HL-60 [5] = test: Cytotoxicity against human HL60 cells assessed as cell viability at >=5 uM after 24 hrs by MTT assay; format: functional, cell-based
K562 [6] = test: Cytotoxicity against human K562 cells assessed as necrosis at 10 uM after 48 hrs by trypan blue staining; format: functional
K562 [7] = test: Cytotoxicity against human K562 cells assessed as necrosis at 10 uM after 72 hrs by trypan blue staining; format: functional
HL-60 [8] = test: Cytotoxicity against human HL60 cells assessed as necrosis at 5 uM after 48 hrs by trypan blue staining; format: functional
HL-60 [9] = test: Cytotoxicity against human HL60 cells assessed as necrosis at 10 uM after 24 hrs by trypan blue staining; format: functional
K562 [10] = test: Cytotoxicity against human K562 cells assessed as necrosis at 2.5 uM after 72 hrs by trypan blue staining; format: functional
K562 [11] = test: Cytotoxicity against human K562 cells assessed as necrosis at 2.5 uM after 24 hrs by trypan blue staining; format: functional
K562 [12] = test: Cytotoxicity against human K562 cells assessed as necrosis at 5 uM after 72 hrs by trypan blue staining; format: functional
HL-60 [13] = test: Cytotoxicity against human HL60 cells assessed as necrosis at 5 uM after 24 hrs by trypan blue staining; format: functional
HL-60 [14] = test: Cytotoxicity against human HL60 cells assessed as necrosis at 2.5 uM after 24 hrs by trypan blue staining; format: functional
K562 [15] = test: Cytotoxicity against human K562 cells assessed as cell viability at <=2.5 uM by MTT assay; format: functional, cell-based; settings: TDE = time-dependent effect
HL-60 [16] = test: Cytotoxicity against human HL60 cells assessed as necrosis at 10 uM after 48 hrs by trypan blue staining; format: functional
HL-60 [17] = test: Cytotoxicity against human HL60 cells assessed as cell viability at <=2.5 uM by MTT assay; format: functional, cell-based; settings: TDE = time-dependent effect
HL-60 [18] = test: Cytotoxicity against human HL60 cells assessed as necrosis at 1.25 uM after 48 hrs by trypan blue staining; format: functional
HL-60 [19] = test: Cytotoxicity against human HL60 cells assessed as necrosis at 10 uM after 72 hrs by trypan blue staining; format: functional
K562 [20] = test: Cytotoxicity against human K562 cells assessed as necrosis at 5 uM after 24 hrs by trypan blue staining; format: functional
HL-60 [21] = test: Cytotoxicity against human HL60 cells assessed as necrosis at 5 uM after 72 hrs by trypan blue staining; format: functional
HL-60 [22] = test: Cytotoxicity against human HL60 cells assessed as necrosis at 1.25 uM after 72 hrs by trypan blue staining; format: functional
K562 [23] = test: Cytotoxicity against human K562 cells assessed as necrosis at 1.25 uM after 24 hrs by trypan blue staining; format: functional
HL-60 [24] = test: Cytotoxicity against human HL60 cells assessed as necrosis at 2.5 uM after 48 hrs by trypan blue staining; format: functional
K562 [25] = test: Cytotoxicity against human K562 cells assessed as necrosis at 5 uM after 48 hrs by trypan blue staining; format: functional
K562 [26] = test: Cytotoxicity against human K562 cells assessed as cell viability at >=5 uM after 24 hrs by MTT assay; format: functional, cell-based
K562 [27] = test: Cytotoxicity against human K562 cells assessed as necrosis at 1.25 uM after 72 hrs by trypan blue staining; format: functional
HL-60 [28] = test: Cytotoxicity against human HL60 cells assessed as necrosis at 2.5 uM after 72 hrs by trypan blue staining; format: functional

C[N+](C)(C)C[C@H](O)CC(=O)[O-] [LEVOCARNITINE]
Activity (K562 [1]): 2.4% | Activity (K562 [2]): 0% | Activity (HL-60 [3]): 1.4% | Activity (K562 [4]): 2.5% | Activity (HL-60 [5]; TDE = time-dependent effect): tde | Activity (K562 [6]): 11.1% | Activity (K562 [7]): 11.8% | Activity (HL-60 [8]): 9.2% | Activity (HL-60 [9]): 1.7% | Activity (K562 [10]): 4.7% | Activity (K562 [11]): 2.4% | Activity (K562 [12]): 14.3% | Activity (HL-60 [13]): 1.8% | Activity (HL-60 [14]): 0% | Activity (K562 [15]): tde | Activity (HL-60 [16]): 9.7% | Activity (HL-60 [17]): tde | Activity (HL-60 [18]): 5.3% | Activity (HL-60 [19]): 30% | Activity (K562 [20]): 0% | Activity (HL-60 [21]): 25.6% | Activity (HL-60 [22]): 13.6% | Activity (K562 [23]): 0% | Activity (HL-60 [24]): 7.8% | Activity (K562 [25]): 8.9% | Activity (K562 [26]; TDE = time-dependent effect): tde | Activity (K562 [27]): 4.7% | Activity (HL-60 [28]): 28.4%

CUPRIC CHLORIDE
Activity (K562 [1]): 100% | Activity (K562 [2]): 10.8% | Activity (HL-60 [3]): 1.4% | Activity (K562 [4]): 4.9% | Activity (HL-60 [5]): 0% | Activity (K562 [6]): 100% | Activity (K562 [7]): 100% | Activity (HL-60 [8]): 100% | Activity (HL-60 [9]): 100% | Activity (K562 [10]): 7.5% | Activity (K562 [11]): 5.1% | Activity (K562 [12]): 100% | Activity (HL-60 [13]): 86.2% | Activity (HL-60 [14]): 1.5% | Activity (K562 [15]): tde | Activity (HL-60 [16]): 100% | Activity (HL-60 [17]): tde | Activity (HL-60 [18]): 10.8% | Activity (HL-60 [19]): 100% | Activity (K562 [20]): 87.5% | Activity (HL-60 [21]): 100% | Activity (HL-60 [22]): 26.5% | Activity (K562 [23]): 16.3% | Activity (HL-60 [24]): 6.8% | Activity (K562 [25]): 100% | Activity (K562 [26]): 0% | Activity (K562 [27]): 3% | Activity (HL-60 [28]): 22.6%
